According to PubChem BioAssay AID1963837 (Molecular Pharmacology Branch, DTP, NCI, 2024):

Each compound was assayed on 843126-344-R-J1-PDC complex spheroid viability (assay: Anticancer human tumor 843126-344-R-J1-PDC patient-derived melanoma cell line growth inhibition [POLQ]). Conditions: second compound 1 µM; first compound 0.316 µM; stronger effect = lower value.
Protocol: Multicellular complex tumor spheroid response to Polymerase (POL) inhibitors (novobiocin, ART-558, RP6685) in combination with a variety of drugs and investigational agents in selected tumor cell lines
The POL inhibitors (novobiocin, ART-558, and RP6685) were evaluated both individually and in combination with standard of care and investigational anticancer small molecules within a complex spheroid model of solid tumors. . Complex spheroids include a stromal component modeled by human endothelial cells (HUVEC) and fibroblasts modeled by human mesenchymal stem cells (MSCs). The concentration ranges selected for each drug and investigational agent were based upon clinically achievable concentrations if the clinical Cmax of the agent was known.
Compounds. The drugs and investigational agents: novobiocin (NSC847541), ART-558 (NSC835418), RP-6685 (NSC848927), peposertib (NSC802822), ceralasertib (NSC780249), elimusertib (NSC800525), camonsertib (NSC841442), AZD-1390 (NSC803789), olaparib (NSC753686), talazoparib (NSC767125), rucaparib (NSC756644), sotorasib (NSC818433), MRTX-1133 (NSC836407), SN-38 (NSC673596), topotecan (NSC609699), epotoside (NSC141540), doxorubicin (NSC123127), gemcitabine (NSC613327), 5-fluorouracil (NSC19893), paclitaxel (NSC125973), vemurafenib (NSC761431), MSA-2 (NSC828583), SN-011 (NSC837082), adavosertib (NSC754352), prexasertib (NSC758257), carboplatin (NSC241240) and oxaliplatin (NSC266046), were obtained from the National Cancer Institute (NCI) Developmental Therapeutics Program Chemical Repository (21). The FDA-approved anticancer drug set is available from the Developmental Therapeutics Program at https://dtp.cancer.gov/organization/dscb/obtaining/. […] The stock solutions were prepared in dimethyl sulfoxide (DMSO, Sigma-Aldrich, St. Louis, MO, cat. D2650), except for the platinum compounds which were prepared in saline (Quality Biological, Gaithersburg, MD, cat. 114-055-101), at 800-fold the tested concentration and stored at -70 degrees C prior to their use. All drugs and investigational agents were tested over a range starting from a high concentration at or near the clinical Cmax and decreasing in half-log increments. If the clinical Cmax for an agent had not been determined, the highest concentration tested was 10 microM, except for SN-38, which was tested at a high concentration of 1 microM.
Cell Culture. All cells were maintained in an incubator at 37 degrees C and 5% CO2 with 95% humidity. The PDC lines were cultured according to standard operating procedures established by the NCI PDMR (https://pdmr.cancer.gov). Table 3 of the manuscript, lists the cell lines along with the number of the three cell types plated to form the mct-spheroids and media for tumor cell growth. After thawing, all PDC lines, except 997537-175-T-J1-PDC and 415267-285-R-J2-PDC, were cultured in Matrigel-coated flasks prepared with a working solution of 1X Ham's F-12 nutrient mix, without supplementation (Thermo Fisher Scientific, cat. 11765054), 100 U/mL penicillin-streptomycin (Thermo Fisher Scientific, cat. 15140122), and 2.5% Matrigel (Corning Inc., Corning, NY, cat. 354248) for the first three passages. The two PDC lines 997537-175-T-J1-PDC and 415267-285-R-J2-PDC were cultured on uncoated flasks. The 857933-349-R-J2-PDC line was cultured in 6C/Colon 1B media containing advanced DMEM/F-12 (Thermo Fisher Scientific, cat. 12634028), 10 mM HEPES (Thermo Fisher Scientific, cat. 15630080), 1X GlutaMAX supplement (Thermo Fisher Scientific, cat. 35050061), 0.1 mg/mL primocin (InvivoGen, San Diego, CA, cat. ant-pm-2), 10% defined fetal bovine serum, heat inactivated (HyClone Laboratories Inc., Logan, UT, cat. SH30070.03HI), 50% L-WRN conditioned media (ATCC, cat. CRL-3276), 1.25 mM N-Acetyl-L-cysteine (Sigma-Aldrich, cat. A9165), 10 mM nicotinamide (Sigma-Aldrich, cat. N0636), 1X B-27 supplement (Thermo Fisher Scientific, cat. 17504044), 1X N-2 supplement (Thermo Fisher Scientific, cat. […]
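Further: spheroids exposed to drugs for seven days before readout.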

In the case of `COc1ccc([C@@H](O)c2cc(-c3ncnc4cc(N5CCOCC5)ccc34)c(F)cc2Cl)nn1` + Cc1cccc(N(C)C(=O)C2C(O)CCN2c2nc(C)cc(C(F)(F)F)c2C#N)c1, the viability, T/C is reported as 69.6%.

Same assay, conditions: second compound 1 µM; first compound 1 µM; stronger effect = lower value

Going from `O=C(Nc1ccc(O)c(NS(=O)(=O)c2ccc(F)cc2)c1)c1ccc(-c2ccccc2)cc1` + Cc1cccc(N(C)C(=O)C2C(O)CCN2c2nc(C)cc(C(F)(F)F)c2C#N)c1 to `COc1ccc([C@@H](O)c2cc(-c3ncnc4cc(N5CCOCC5)ccc34)c(F)cc2Cl)nn1` + Cc1cccc(N(C)C(=O)C2C(O)CCN2c2nc(C)cc(C(F)(F)F)c2C#N)c1, the viability, T/C falls from 99.9% to 86.6%.

`COc1cccc2c1C(=O)c1c(O)c3c(c(O)c1C2=O)CC(O)(C(=O)CO)CC3OC1CC(N)C(O)C(C)O1` (stereo not drawn) + Cc1cccc(N(C)C(=O)C2C(O)CCN2c2nc(C)cc(C(F)(F)F)c2C#N)c1 gave a viability, T/C of 7.4%.

Same assay, conditions: second compound 1 µM; first compound 3.16 µM; stronger effect = lower value

Compared with `O=C(Nc1ccc(O)c(NS(=O)(=O)c2ccc(F)cc2)c1)c1ccc(-c2ccccc2)cc1` + Cc1cccc(N(C)C(=O)C2C(O)CCN2c2nc(C)cc(C(F)(F)F)c2C#N)c1, `COc1ccc([C@@H](O)c2cc(-c3ncnc4cc(N5CCOCC5)ccc34)c(F)cc2Cl)nn1` + Cc1cccc(N(C)C(=O)C2C(O)CCN2c2nc(C)cc(C(F)(F)F)c2C#N)c1 is lower in viability, T/C: 92.4% for the first, 79.8% for the second.

In the case of `COc1cccc2c1C(=O)c1c(O)c3c(c(O)c1C2=O)CC(O)(C(=O)CO)CC3OC1CC(N)C(O)C(C)O1` (stereo not drawn) + Cc1cccc(N(C)C(=O)C2C(O)CCN2c2nc(C)cc(C(F)(F)F)c2C#N)c1, the viability, T/C is reported as 3.66%.

Same assay, conditions: second compound 1 µM; first compound 10 µM; stronger effect = lower value

First: O=C(Nc1ccc(O)c(NS(=O)(=O)c2ccc(F)cc2)c1)c1ccc(-c2ccccc2)cc1 + Cc1cccc(N(C)C(=O)C2C(O)CCN2c2nc(C)cc(C(F)(F)F)c2C#N)c1
Second: COc1ccc([C@@H](O)c2cc(-c3ncnc4cc(N5CCOCC5)ccc34)c(F)cc2Cl)nn1 + Cc1cccc(N(C)C(=O)C2C(O)CCN2c2nc(C)cc(C(F)(F)F)c2C#N)c1
The viability, T/C of the first is higher: 72.6% for the first, 68.1% for the second.

`COc1cccc2c1C(=O)c1c(O)c3c(c(O)c1C2=O)CC(O)(C(=O)CO)CC3OC1CC(N)C(O)C(C)O1` (stereo not drawn) + Cc1cccc(N(C)C(=O)C2C(O)CCN2c2nc(C)cc(C(F)(F)F)c2C#N)c1 gave a viability, T/C of 3.67%.

Same assay, conditions: second compound 3.16 µM; first compound 0.0316 µM; stronger effect = lower value

Compared with `O=C(Nc1ccc(O)c(NS(=O)(=O)c2ccc(F)cc2)c1)c1ccc(-c2ccccc2)cc1` + Cc1cccc(N(C)C(=O)C2C(O)CCN2c2nc(C)cc(C(F)(F)F)c2C#N)c1, `COc1ccc([C@@H](O)c2cc(-c3ncnc4cc(N5CCOCC5)ccc34)c(F)cc2Cl)nn1` + Cc1cccc(N(C)C(=O)C2C(O)CCN2c2nc(C)cc(C(F)(F)F)c2C#N)c1 is lower in viability, T/C: 97.5% for the first, 81.2% for the second.

Compound `COc1cccc2c1C(=O)c1c(O)c3c(c(O)c1C2=O)CC(O)(C(=O)CO)CC3OC1CC(N)C(O)C(C)O1` (stereo not drawn) + Cc1cccc(N(C)C(=O)C2C(O)CCN2c2nc(C)cc(C(F)(F)F)c2C#N)c1 has a viability, T/C of 74.3%.

Same assay, conditions: second compound 3.16 µM; first compound 0.1 µM; stronger effect = lower value

First: O=C(Nc1ccc(O)c(NS(=O)(=O)c2ccc(F)cc2)c1)c1ccc(-c2ccccc2)cc1 + Cc1cccc(N(C)C(=O)C2C(O)CCN2c2nc(C)cc(C(F)(F)F)c2C#N)c1
Second: COc1ccc([C@@H](O)c2cc(-c3ncnc4cc(N5CCOCC5)ccc34)c(F)cc2Cl)nn1 + Cc1cccc(N(C)C(=O)C2C(O)CCN2c2nc(C)cc(C(F)(F)F)c2C#N)c1
The viability, T/C of the first is higher: 97.7% for the first, 89.1% for the second.

Compound `COc1cccc2c1C(=O)c1c(O)c3c(c(O)c1C2=O)CC(O)(C(=O)CO)CC3OC1CC(N)C(O)C(C)O1` (stereo not drawn) + Cc1cccc(N(C)C(=O)C2C(O)CCN2c2nc(C)cc(C(F)(F)F)c2C#N)c1 has a viability, T/C of 64%.

Same assay, conditions: second compound 3.16 µM; first compound 0.316 µM; stronger effect = lower value

Going from `O=C(Nc1ccc(O)c(NS(=O)(=O)c2ccc(F)cc2)c1)c1ccc(-c2ccccc2)cc1` + Cc1cccc(N(C)C(=O)C2C(O)CCN2c2nc(C)cc(C(F)(F)F)c2C#N)c1 to `COc1ccc([C@@H](O)c2cc(-c3ncnc4cc(N5CCOCC5)ccc34)c(F)cc2Cl)nn1` + Cc1cccc(N(C)C(=O)C2C(O)CCN2c2nc(C)cc(C(F)(F)F)c2C#N)c1, the viability, T/C rises from 89% to 92.7%.

`COc1cccc2c1C(=O)c1c(O)c3c(c(O)c1C2=O)CC(O)(C(=O)CO)CC3OC1CC(N)C(O)C(C)O1` (stereo not drawn) + Cc1cccc(N(C)C(=O)C2C(O)CCN2c2nc(C)cc(C(F)(F)F)c2C#N)c1 was tested, and the viability, T/C was 37.2%.

Same assay, conditions: second compound 3.16 µM; first compound 1 µM; stronger effect = lower value

First: O=C(Nc1ccc(O)c(NS(=O)(=O)c2ccc(F)cc2)c1)c1ccc(-c2ccccc2)cc1 + Cc1cccc(N(C)C(=O)C2C(O)CCN2c2nc(C)cc(C(F)(F)F)c2C#N)c1
Second: COc1ccc([C@@H](O)c2cc(-c3ncnc4cc(N5CCOCC5)ccc34)c(F)cc2Cl)nn1 + Cc1cccc(N(C)C(=O)C2C(O)CCN2c2nc(C)cc(C(F)(F)F)c2C#N)c1
The viability, T/C of the first is higher: 90.6% for the first, 81.9% for the second.

Compound `COc1cccc2c1C(=O)c1c(O)c3c(c(O)c1C2=O)CC(O)(C(=O)CO)CC3OC1CC(N)C(O)C(C)O1` (stereo not drawn) + Cc1cccc(N(C)C(=O)C2C(O)CCN2c2nc(C)cc(C(F)(F)F)c2C#N)c1 has a viability, T/C of 5.9%.

Same assay, conditions: second compound 3.16 µM; first compound 3.16 µM; stronger effect = lower value

For `O=C(Nc1ccc(O)c(NS(=O)(=O)c2ccc(F)cc2)c1)c1ccc(-c2ccccc2)cc1` + Cc1cccc(N(C)C(=O)C2C(O)CCN2c2nc(C)cc(C(F)(F)F)c2C#N)c1, the viability, T/C was 84.6%.
